Experimental data: ChEMBL document CHEMBL4414672, “Synthesis of certain benzothieno[3,2-d]pyrimidine derivatives as a selective SIRT2 inhibitors” (Eur J Med Chem, 2020)

Key:
Assay type in all cases: functional
[1] = test system: NCI-H226; experiment: Growth inhibition of human NCI-H226 cells at 10^-5 M incubated for 48 hrs by sulforhodamine B assay; settings: NCI-H226, 48 h, read-out: GI
[2] = test system: PC-3; experiment: Growth inhibition of human PC3 cells at 10^-5 M incubated for 48 hrs by sulforhodamine B assay; settings: PC-3, 48 h, read-out: GI
[3] = test system: SNB-75; experiment: Growth inhibition of human SNB75 cells at 10^-5 M incubated for 48 hrs by sulforhodamine B assay; settings: SNB-75, 48 h, read-out: GI
[4] = test system: IGROV-1; experiment: Growth inhibition of human IGROV1 cells at 10^-5 M incubated for 48 hrs by sulforhodamine B assay; settings: IGROV-1, 48 h, read-out: GI
[5] = test system: SK-OV-3; experiment: Growth inhibition of human SKOV3 cells at 10^-5 M incubated for 48 hrs by sulforhodamine B assay; settings: SK-OV-3, 48 h, read-out: GI
[6] = test system: SN12C; experiment: Growth inhibition of human SN12C cells at 10^-5 M incubated for 48 hrs by sulforhodamine B assay; settings: read-out: GI
[7] = test system: NCI-H322M; experiment: Growth inhibition of human NCI-H322M cells at 10^-5 M incubated for 48 hrs by sulforhodamine B assay; settings: read-out: GI
[8] = test system: Malme-3M; experiment: Growth inhibition of human MALME-3M cells at 10^-5 M incubated for 48 hrs by sulforhodamine B assay; settings: read-out: GI
[9] = test system: MDA-MB-231; experiment: Growth inhibition of human MDA-MB-231 cells at 10^-5 M incubated for 48 hrs by sulforhodamine B assay; settings: MDA-MB-231, 48 h, read-out: GI
[10] = test system: TK-10; experiment: Growth inhibition of human TK10 cells at 10^-5 M incubated for 48 hrs by sulforhodamine B assay; settings: TK-10, 48 h, read-out: GI
[11] = test system: BT-549; experiment: Growth inhibition of human BT549 cells at 10^-5 M incubated for 48 hrs by sulforhodamine B assay; settings: BT-549, 48 h, read-out: GI
[12] = test system: RXF 393; experiment: Growth inhibition of human RXF393 cells at 10^-5 M incubated for 48 hrs by sulforhodamine B assay; settings: RXF 393, 48 h, read-out: GI
[13] = test system: CAKI-1; experiment: Growth inhibition of human Caki1 cells at 10^-5 M incubated for 48 hrs by sulforhodamine B assay; settings: CAKI-1, 48 h, read-out: GI
[14] = test system: K562; experiment: Growth inhibition of human K562 cells at 10^-5 M incubated for 48 hrs by sulforhodamine B assay; settings: K562, 48 h, read-out: GI
[15] = test system: UACC-257; experiment: Growth inhibition of human UACC257 cells at 10^-5 M incubated for 48 hrs by sulforhodamine B assay; settings: UACC-257, 48 h, read-out: GI
[16] = test system: A549; experiment: Growth inhibition of human A549/ATCC cells at 10^-5 M incubated for 48 hrs by sulforhodamine B assay; settings: A549, 48 h, read-out: GI
[17] = test system: SK-MEL-5; experiment: Growth inhibition of human SK-MEL-5 cells at 10^-5 M incubated for 48 hrs by sulforhodamine B assay; settings: SK-MEL-5, 48 h, read-out: GI
[18] = test system: HOP-92; experiment: Growth inhibition of human HOP92 cells at 10^-5 M incubated for 48 hrs by sulforhodamine B assay; settings: HOP-92, 48 h, read-out: GI
[19] = test system: NCI/ADR-RES; experiment: Growth inhibition of human NCI/ADR-RES cells at 10^-5 M incubated for 48 hrs by sulforhodamine B assay; settings: read-out: GI
[20] = test system: U-251; experiment: Growth inhibition of human U251 cells at 10^-5 M incubated for 48 hrs by sulforhodamine B assay; settings: U-251, 48 h, read-out: GI
[21] = test system: COLO 205; experiment: Growth inhibition of human COLO205 cells at 10^-5 M incubated for 48 hrs by sulforhodamine B assay; settings: COLO 205, 48 h, read-out: GI
[22] = test system: MDA-MB-468; experiment: Growth inhibition of human MDA-MB-468 cells at 10^-5 M incubated for 48 hrs by sulforhodamine B assay; settings: MDA-MB-468, 48 h, read-out: GI
[23] = test system: HT-29; experiment: Growth inhibition of human HT-29 cells at 10^-5 M incubated for 48 hrs by sulforhodamine B assay; settings: HT-29, 48 h, read-out: GI
[24] = test system: A498; experiment: Growth inhibition of human A498 cells at 10^-5 M incubated for 48 hrs by sulforhodamine B assay; settings: A498, 48 h, read-out: GI
[25] = test system: OVCAR-8; experiment: Growth inhibition of human OVCAR8 cells at 10^-5 M incubated for 48 hrs by sulforhodamine B assay; settings: OVCAR-8, 48 h, read-out: GI
[26] = test system: EKVX; experiment: Growth inhibition of human EKVX cells at 10^-5 M incubated for 48 hrs by sulforhodamine B assay; settings: read-out: GI
[27] = test system: NCI-H23; experiment: Growth inhibition of human NCI-H23 cells at 10^-5 M incubated for 48 hrs by sulforhodamine B assay; settings: NCI-H23, 48 h, read-out: GI
[28] = test system: DU-145; experiment: Growth inhibition of human DU145 cells at 10^-5 M incubated for 48 hrs by sulforhodamine B assay; settings: DU-145, 48 h, read-out: GI
[29] = test system: Hs-578T; experiment: Growth inhibition of human Hs 578T cells at 10^-5 M incubated for 48 hrs by sulforhodamine B assay; settings: read-out: GI
[30] = test system: SW-620; experiment: Growth inhibition of human SW620 cells at 10^-5 M incubated for 48 hrs by sulforhodamine B assay; settings: SW-620, 48 h, read-out: GI
[31] = test system: ACHN; experiment: Growth inhibition of human ACHN cells at 10^-5 M incubated for 48 hrs by sulforhodamine B assay; settings: read-out: GI
[32] = test system: SR; experiment: Growth inhibition of human SR cells at 10^-5 M incubated for 48 hrs by sulforhodamine B assay; settings: read-out: GI
[33] = test system: UACC-62; experiment: Growth inhibition of human UACC62 cells at 10^-5 M incubated for 48 hrs by sulforhodamine B assay; settings: UACC-62, 48 h, read-out: GI
[34] = test system: HCC 2998; experiment: Growth inhibition of human HCC2998 cells at 10^-5 M incubated for 48 hrs by sulforhodamine B assay; settings: HCC 2998, 48 h, read-out: GI
[35] = test system: OVCAR-5; experiment: Growth inhibition of human OVCAR5 cells at 10^-5 M incubated for 48 hrs by sulforhodamine B assay; settings: OVCAR-5, 48 h, read-out: GI
[36] = test system: M14; experiment: Growth inhibition of human M14 cells at 10^-5 M incubated for 48 hrs by sulforhodamine B assay; settings: M14, 48 h, read-out: GI
[37] = test system: OVCAR-3; experiment: Growth inhibition of human OVCAR3 cells at 10^-5 M incubated for 48 hrs by sulforhodamine B assay; settings: OVCAR-3, 48 h, read-out: GI
[38] = test system: SF-268; experiment: Growth inhibition of human SF268 cells at 10^-5 M incubated for 48 hrs by sulforhodamine B assay; settings: SF-268, 48 h, read-out: GI
[39] = test system: MCF7; experiment: Growth inhibition of human MCF7 cells at 10^-5 M incubated for 48 hrs by sulforhodamine B assay; settings: MCF7, 48 h, read-out: GI

Row | Compound | inhibition of growth at 10 µM [1] [%] | inhibition of growth at 10 µM [2] [%] | inhibition of growth at 10 µM [3] [%] | inhibition of growth at 10 µM [4] [%] | inhibition of growth at 10 µM [5] [%] | inhibition of growth at 10 µM [6] [%] | inhibition of growth at 10 µM [7] [%] | inhibition of growth at 10 µM [8] [%] | inhibition of growth at 10 µM [9] [%] | inhibition of growth at 10 µM [10] [%] | inhibition of growth at 10 µM [11] [%] | inhibition of growth at 10 µM [12] [%] | inhibition of growth at 10 µM [13] [%] | inhibition of growth at 10 µM [14] [%] | inhibition of growth at 10 µM [15] [%] | inhibition of growth at 10 µM [16] [%] | inhibition of growth at 10 µM [17] [%] | inhibition of growth at 10 µM [18] [%] | inhibition of growth at 10 µM [19] [%] | inhibition of growth at 10 µM [20] [%] | further results
1 | O=C1SC2=Nc3c(sc4ccc(Cl)cc34)C(c3ccc4ccccc4c3)N2C1=O (configuration not stated) | 24 | 17.1 | 5.78 | 26.4 | 9.71 | 13.2 | 13.9 | 12.9 | 18.1 | -28.7 | -19.9 | 3.64 | 30.1 | 12 | -0.63 | 1.04 | 5.6 | 16.5 | 4.45 | -1.96 | inhibition of growth at 10 µM [21]: -2.01%; inhibition of growth at 10 µM [22]: 11.2%; inhibition of growth at 10 µM [23]: -2.87%; inhibition of growth at 10 µM [24]: 13.1%; inhibition of growth at 10 µM [25]: 5.42%; inhibition of growth at 10 µM [26]: 12.9%; inhibition of growth at 10 µM [27]: 20.5%; inhibition of growth at 10 µM [28]: -1.57%; inhibition of growth at 10 µM [29]: 1.4%; inhibition of growth at 10 µM [30]: 4.8%; inhibition of growth at 10 µM [31]: 14.5%; inhibition of growth at 10 µM [32]: 26.4%; inhibition of growth at 10 µM [33]: 34.2%; inhibition of growth at 10 µM [34]: -27.7%; inhibition of growth at 10 µM [35]: -1.12%; inhibition of growth at 10 µM [36]: 7.5%; inhibition of growth at 10 µM [37]: 9.4%; inhibition of growth at 10 µM [38]: 12.7%; inhibition of growth at 10 µM [39]: 68.7%
2 | N#Cc1cnn(C2=Nc3c(sc4ccc(Cl)cc34)C(c3cccc([N+](=O)[O-])c3)N2)c1N (configuration not stated) | 19.2 | 11 | 11.5 | 23.1 | 5.04 | -7.06 | 6.34 | -6.04 | 22.9 | 25.1 | -5.52 | 4.09 | -3.28 | 1.28 | -3.69 | -3.91 | 4.88 | 1.55 | 5.59 | -11.2 | inhibition of growth at 10 µM [21]: -3.42%; inhibition of growth at 10 µM [22]: 3.7%; inhibition of growth at 10 µM [23]: -17.9%; inhibition of growth at 10 µM [24]: -6.43%; inhibition of growth at 10 µM [25]: -2.67%; inhibition of growth at 10 µM [26]: 20.9%; inhibition of growth at 10 µM [27]: 19.8%; inhibition of growth at 10 µM [28]: -10.5%; inhibition of growth at 10 µM [29]: 3.32%; inhibition of growth at 10 µM [30]: -4.05%; inhibition of growth at 10 µM [31]: 15.2%; inhibition of growth at 10 µM [32]: -0.62%; inhibition of growth at 10 µM [33]: 7.54%; inhibition of growth at 10 µM [34]: -3.42%; inhibition of growth at 10 µM [35]: 4.37%; inhibition of growth at 10 µM [36]: -2.52%; inhibition of growth at 10 µM [37]: -7.11%; inhibition of growth at 10 µM [38]: 5.36%; inhibition of growth at 10 µM [39]: 29.9%
3 | N=C1Nc2c(sc3ccc(Cl)cc23)C(c2ccc3ccccc3c2)N1 (configuration not stated) | 6.58 | -10 | 0.66 | -4.93 | -0.13 | -25.1 | 6.59 | 1.8 | -0.83 | 30.2 | 5.47 | 0.36 | -12.5 | 6.06 | 8.66 | 7.42 | -0.53 | 8.76 | 1.25 | -0.54 | inhibition of growth at 10 µM [21]: -6.53%; inhibition of growth at 10 µM [22]: -6.39%; inhibition of growth at 10 µM [23]: -3.45%; inhibition of growth at 10 µM [24]: 6.65%; inhibition of growth at 10 µM [25]: -3.15%; inhibition of growth at 10 µM [26]: 1.13%; inhibition of growth at 10 µM [27]: 5.66%; inhibition of growth at 10 µM [28]: 12.1%; inhibition of growth at 10 µM [29]: 14.6%; inhibition of growth at 10 µM [30]: 0.99%; inhibition of growth at 10 µM [31]: 25.9%; inhibition of growth at 10 µM [32]: -0.62%; inhibition of growth at 10 µM [33]: 6%; inhibition of growth at 10 µM [34]: 10.9%; inhibition of growth at 10 µM [35]: -3.77%; inhibition of growth at 10 µM [36]: -0.34%; inhibition of growth at 10 µM [37]: 8.92%; inhibition of growth at 10 µM [38]: -5.53%; inhibition of growth at 10 µM [39]: 6.28%
